Laboratory results: the NIST ThermoML archive (doi:10.1021/je900660x)

Assays:
[1] = molar heat capacity at constant pressure; conditions: 101.33 kPa, Liquid, Large sample (1 g) DSC
[2] = for mass density / viscosity / thermal conductivity: 101.33 kPa, Liquid; for mass density: Vibrating tube method; for thermal conductivity: Hot wire method

CCCC[P+](CCCC)(CCCC)CCCC.C[C@@H](O)[C@H](N)C(=O)[O-] [tetrabutylphosphonium L-threoninate]
Conditions	Glass transition temperature, [2] [°C]	mass density, [2] [kg/m3]	molar heat capacity at constant pressure, [1] [J/K/mol]	thermal conductivity, [2] [W/m/K]	viscosity, [2] [mPa·s]
293.15 K	–	983	952.2	–	–
298.15 K	–	979.9	961.3	0.156	739
303.15 K	–	976.9	970.7	0.155	519.8
313.15 K	–	970.7	991.5	0.154	260.1
323.15 K	–	964.6	1012.6	0.153	143.2
333.15 K	–	958.5	1033.4	0.152	88.5
343.15 K	–	952.5	1055.7	0.152	53.9
353.15 K	–	946.6	1076.4	0.151	36.2
363.15 K	–	940.7	1097.2	–	25.1
DTA	-60.72	–	–	–	–

CC(C)[C@H](N)C(=O)[O-].CCCC[P+](CCCC)(CCCC)CCCC [tetrabutylphosphonium L-valinate]
Conditions	Glass transition temperature, [2] [°C]	mass density, [2] [kg/m3]	molar heat capacity at constant pressure, [1] [J/K/mol]	thermal conductivity, [2] [W/m/K]	viscosity, [2] [mPa·s]
293.15 K	–	–	743.7	–	–
298.15 K	–	–	747.4	–	–
303.15 K	–	–	751.6	–	–
313.15 K	–	932.1	761.3	0.157	216.9
323.15 K	–	926	771.5	0.156	120
333.15 K	–	919.9	781.2	0.155	70.8
343.15 K	–	913.9	791.4	0.154	44.8
353.15 K	–	908	801.1	0.153	29.6
363.15 K	–	902.1	810.9	–	20.3
DTA	-65.56	–	–	–	–

Conditions	Normal melting temperature [°C]
[2], Crystal, DTA	25.77
